Test results as given in ChEMBL document CHEMBL1201862, “PubChem BioAssay data set” (2004).
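Cells were grown in 96-well plates and exposed to each compound for 48 hours at five concentrations; endpoints were interpolated linearly between bracketing concentrations, or set to the highest concentration if not reached. GI50: concentration for 50% inhibition of growth.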 Activity calls are given as the source filed them. Cut-off read from the data, not from the text of the source: active = GI50 up to about 1.1 µM and inactive = higher.

Assays:
Experiment in all cases: NCI anticancer screen, dose series, 48 h
[1] = system: 786-0
[2] = system: A498
[3] = system: A549
[4] = system: HOP-92
[5] = system: Hs-578T
[6] = system: MCF7
[7] = system: MDA-N
[8] = system: MOLT-4
[9] = system: NCI-H23
[10] = system: NCI-H460
[11] = system: NCI-H522
[12] = system: OVCAR-3
[13] = system: PC-3
[14] = system: SK-MEL-5
[15] = system: SN12C
[16] = system: SNB-75
[17] = system: TK-10
[18] = system: UACC-257
[19] = system: SK-MEL-28

Row | Compound | GI50 [1] | GI50 [2] | GI50 [3] | GI50 [4] | GI50 [5] | GI50 [6] | GI50 [7] | GI50 [8] | GI50 [9] | GI50 [10] | GI50 [11] | GI50 [12] | GI50 [13] | GI50 [14] | GI50 [15] | GI50 [16] | GI50 [17] | GI50 [18] | GI50 [19]
1 | CCOC(=O)CCC(C(=O)OCC)n1nc2ccc(Nc3c(C)[n+]([O-])c4cc(Cl)ccc4[n+]3[O-])cc2n1 (stereo not drawn) | 83.9 µM (inactive) | > 100 µM (inactive) | > 100 µM (inactive) | 27 µM (inactive) | 59.6 µM (inactive) | 38.2 µM (inactive) | 98.4 µM (inactive) | 32.3 µM (inactive) | > 100 µM (inactive) | 24.3 µM (inactive) | 40 µM (inactive) | > 100 µM (inactive) | 76.7 µM (inactive) | 75 µM (inactive) | 73.3 µM (inactive) | > 100 µM (inactive) | > 100 µM (inactive) | 94.4 µM (inactive) | 
2 | O=C1Nc2ccccc2Cn2c1cc1oc(-c3ccccc3)cc12 | 20.4 µM (inactive) | 36.5 µM (inactive) | 32.4 µM (inactive) | 31.3 µM (inactive) | 10.9 µM (inactive) | 10.8 µM (inactive) | > 100 µM (inactive) | > 100 µM (inactive) | 86.9 µM (inactive) | 61.7 µM (inactive) | 43.2 µM (inactive) | 19.2 µM (inactive) | 57.3 µM (inactive) | 7.57 µM (inactive) | 27.4 µM (inactive) | 24.9 µM (inactive) | > 100 µM (inactive) | > 100 µM (inactive) | 63.5 µM (inactive)
3 | COc1ccc(C(=O)NC2=C(Cl)C(=O)c3ccccc3C2=O)cc1 | 5.36 µM (inactive) | 14.6 µM (inactive) | 4.08 µM (inactive) | 1.36 µM (inactive) | 3.08 µM (inactive) | 2.75 µM (inactive) | 2.75 µM (inactive) | 0.955 µM (active) | 1.6 µM (inactive) | 3.1 µM (inactive) | 0.416 µM (active) | 1.14 µM (inactive) | 1.65 µM (inactive) | 1.58 µM (inactive) | 2.77 µM (inactive) | 2.56 µM (inactive) | 3.22 µM (inactive) | 1.71 µM (inactive) | 1.15 µM (inactive)
4 | c1ccc(-c2cs[s+]c2)cc1 | > 100 µM (inactive) | > 100 µM (inactive) | > 100 µM (inactive) | > 100 µM (inactive) | > 100 µM (inactive) | > 100 µM (inactive) | > 100 µM (inactive) | 26.5 µM (inactive) | > 100 µM (inactive) | 31.8 µM (inactive) | 46.2 µM (inactive) | 67 µM (inactive) | > 100 µM (inactive) | > 100 µM (inactive) | > 100 µM (inactive) | > 100 µM (inactive) | > 100 µM (inactive) | > 100 µM (inactive) | > 100 µM (inactive)
5 | CCC(=O)Nc1ccc(NS(=O)(=O)c2ccc(Cl)cc2)cc1 | > 100 µM (inactive) | > 100 µM (inactive) | > 100 µM (inactive) | > 100 µM (inactive) | > 100 µM (inactive) | > 100 µM (inactive) | > 100 µM (inactive) | 34.5 µM (inactive) | > 100 µM (inactive) | > 100 µM (inactive) | > 100 µM (inactive) | 43.5 µM (inactive) | > 100 µM (inactive) | 47.6 µM (inactive) | > 100 µM (inactive) | > 100 µM (inactive) |  | 87.7 µM (inactive) | > 100 µM (inactive)
6 | CC(=O)Nn1c(Cc2ccc(Cl)cc2)nn(C)c1=O | > 100 µM (inactive) | > 100 µM (inactive) | > 100 µM (inactive) | > 100 µM (inactive) | > 100 µM (inactive) | > 100 µM (inactive) | > 100 µM (inactive) | > 100 µM (inactive) | > 100 µM (inactive) | > 100 µM (inactive) | > 100 µM (inactive) | > 100 µM (inactive) | > 100 µM (inactive) | > 100 µM (inactive) | > 100 µM (inactive) | > 100 µM (inactive) | > 100 µM (inactive) | > 100 µM (inactive) | > 100 µM (inactive)
7 | Oc1c2c(c(O)c3ccccc13)C1(N=N2)c2ccccc2Oc2ccccc21 | 3.2 µM (inactive) | 19 µM (inactive) | 10 µM (inactive) | 15.8 µM (inactive) | 5.56 µM (inactive) | 3.09 µM (inactive) | 6.58 µM (inactive) | 4.17 µM (inactive) | 15.2 µM (inactive) | 18.5 µM (inactive) | 1.98 µM (inactive) | 3.01 µM (inactive) | 12.5 µM (inactive) | 13 µM (inactive) | 6.46 µM (inactive) | 17.3 µM (inactive) | 6.98 µM (inactive) | 5.71 µM (inactive) | 11.4 µM (inactive)
8 | COC(=O)C(Cc1c[nH]c2ccccc12)NP(=O)(O)OCC1OC(n2ccc(N)nc2=O)C(O)C1O (stereo not drawn) | > 100 µM (inactive) | > 100 µM (inactive) | > 100 µM (inactive) | > 100 µM (inactive) | > 100 µM (inactive) | > 100 µM (inactive) | > 100 µM (inactive) | > 100 µM (inactive) | > 100 µM (inactive) | > 100 µM (inactive) | > 100 µM (inactive) | > 100 µM (inactive) | > 100 µM (inactive) | > 100 µM (inactive) | > 100 µM (inactive) | > 100 µM (inactive) | > 100 µM (inactive) | > 100 µM (inactive) | > 100 µM (inactive)
9 | COc1cc(O)c(/C=N/N=C(\N)NO)c(OC)c1 | > 10 µM (inactive) | > 10 µM (inactive) | > 10 µM (inactive) | > 10 µM (inactive) | > 10 µM (inactive) | > 10 µM (inactive) | > 10 µM (inactive) |  | > 10 µM (inactive) | 4.08 µM (inactive) | > 10 µM (inactive) | 5.5 µM (inactive) | 6.18 µM (inactive) | > 10 µM (inactive) | > 10 µM (inactive) | 1.56 µM (inactive) | > 10 µM (inactive) | > 10 µM (inactive) | > 10 µM (inactive)
10 | CN(N)/N=N/c1[nH]cnc1C(N)=O | 12.1 µM (inactive) | 39.1 µM (inactive) | > 100 µM (inactive) | 17.5 µM (inactive) | 37.5 µM (inactive) | 48.4 µM (inactive) | 13.4 µM (inactive) | 1.23 µM (inactive) | 50.4 µM (inactive) | 13.2 µM (inactive) | 30.5 µM (inactive) | 17.5 µM (inactive) | 15.3 µM (inactive) | 37.7 µM (inactive) | 4.82 µM (inactive) | 4.66 µM (inactive) | 7.67 µM (inactive) | 54.2 µM (inactive) | > 100 µM (inactive)
11 | COC(=O)c1c(C)cccc1C1CN=NC12Cc1c(C)cccc1C2=O (stereo not drawn) | > 100 µM (inactive) | 37.8 µM (inactive) | 82.6 µM (inactive) | 19.9 µM (inactive) | 80.2 µM (inactive) | 55.2 µM (inactive) | > 100 µM (inactive) | 37.4 µM (inactive) | 60 µM (inactive) | 97.3 µM (inactive) | 24.9 µM (inactive) | 45.2 µM (inactive) | 37.2 µM (inactive) | 53 µM (inactive) | > 100 µM (inactive) | 64.1 µM (inactive) | > 100 µM (inactive) | 43.4 µM (inactive) | > 100 µM (inactive)
12 | COC(=O)c1scc(N)c1-n1ccc(=O)[nH]c1=O | > 100 µM (inactive) | > 100 µM (inactive) | > 100 µM (inactive) | > 100 µM (inactive) | > 100 µM (inactive) | > 100 µM (inactive) | > 100 µM (inactive) | > 100 µM (inactive) | > 100 µM (inactive) | > 100 µM (inactive) | > 100 µM (inactive) |  | > 100 µM (inactive) | > 100 µM (inactive) | > 100 µM (inactive) | > 100 µM (inactive) | > 100 µM (inactive) | > 100 µM (inactive) | > 100 µM (inactive)
13 | COc1cc2cc(C(=O)N3C[C@H](CCl)c4c3cc(O)c3ccccc43)[nH]c2c(OC)c1OC | 0.0861 µM (active) | 0.248 µM (active) | 0.252 µM (active) | 0.309 µM (active) | 0.234 µM (active) | 0.0335 µM (active) | 1.29 µM (inactive) | 0.0381 µM (active) | 0.0453 µM (active) | 0.042 µM (active) | 0.108 µM (active) | 0.279 µM (active) | 0.267 µM (active) | 0.0137 µM (active) | 0.0133 µM (active) | 0.184 µM (active) | 0.277 µM (active) |  | 0.267 µM (active)
14 | CC1=C(C(=O)NCCCN(CCO)CCO)CC(C(=O)NCCCN(CCO)CCO)=C(C)N1 | > 100 µM (inactive) | 27.4 µM (inactive) | > 100 µM (inactive) | 54.6 µM (inactive) | 29.1 µM (inactive) | > 100 µM (inactive) | 86.1 µM (inactive) | > 100 µM (inactive) | > 100 µM (inactive) | > 100 µM (inactive) | 98.9 µM (inactive) | > 100 µM (inactive) | 59.8 µM (inactive) | 22.2 µM (inactive) | > 100 µM (inactive) | 15.2 µM (inactive) | > 100 µM (inactive) | > 100 µM (inactive) | 
15 | CC(C)=CCC/C(C)=C/COc1c2ccoc2cc2oc(=O)ccc12 [BERGAMOTTIN] | 32.4 µM (inactive) | 23.1 µM (inactive) | 24.9 µM (inactive) | 50.2 µM (inactive) | 48.1 µM (inactive) | 19.1 µM (inactive) | 34.7 µM (inactive) | 15.4 µM (inactive) | 27.4 µM (inactive) | 29.9 µM (inactive) | 19 µM (inactive) | 25.4 µM (inactive) | 29.9 µM (inactive) | 14.9 µM (inactive) | 38.3 µM (inactive) |  | 42.2 µM (inactive) | 24.7 µM (inactive) | 59.2 µM (inactive)
